Measurements as given in patent publication US12421207B2 (CMG Pharmaceutical Co., Ltd., priority 2022, dated 2025).
Read-outs that look alike come from different tables or passages of the source.

Assays:
[1] = tested on: HCC827/OR cells; experiment: Cell viability assay (CellTiter-Glo 2.0), osimertinib-resistant HCC827/OR cells; format: cell-based, human; details: Homo sapiens, HCC827, 72 h drug treatment, read-out: Relative cell viability, IC50 HCC827OR
Excerpt: (§1) To explore c-MET and AXL mechanisms of EGFR TKI resistance, resistant cells of the EGFR TKI hypersensitive EGFR exon 19 mutant NSCLC cell line, HCC827 and PC9 were generated by exposing these cells to increasing concentrations of EGFR TKI for over 3 months.
(§2) Gefitinib-resistant cells were referred to as HCC827/GR. […] Osimertinib-resistant cells were referred to as HCC827/OR.

[2] = tested on: HCC827/ER cells; experiment: Cell viability assay (CellTiter-Glo 2.0), erlotinib-resistant HCC827/ER cells; format: cell-based, human; details: Homo sapiens, HCC827ER, read-out: Relative cell viability
Excerpt: as §1, §2

[3] = tested on: HCC827/GR cells; experiment: Cell viability assay (CellTiter-Glo 2.0), gefitinib-resistant HCC827/GR cells; format: cell-based, human; details: Homo sapiens, HCC827, 72 h drug treatment, read-out: Relative cell viability, IC50 HCC827GR
How it was run: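 Gefitinib-resistant HCC827 cells, derived by over 3 months' escalating EGFR TKI exposure, seeded at 1,000 cells/well. Treated 72 h with a 10-point dose range from 1 nM to 10,000 nM. Viability read by CellTiter-Glo 2.0 luminescence.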

[4] = tested on: PC9/ER cells; experiment: Cell viability assay (CellTiter-Glo 2.0), erlotinib-resistant PC9/ER cells; format: cell-based; details: Homo sapiens, PC-9/ER, 72 h drug treatment, read-out: Relative cell viability, IC50 PC9ER
Excerpt: as §1, §2

[5] = Table 2, EGFR TKI resistant cells, combination with EGFR TKI
[6] = Table 2, 72 h drug treatment, EGFR TKI resistant cells, combination with EGFR TKI
[7] = Table 4, combinations of EGFR TKIs and inhibitor of Formula (I)
[8] = Table 4, 72 h drug treatment, combinations of EGFR TKIs and inhibitor of Formula (I)

Structure (SMILES) | IC50 [1, 5] [µM] | IC50 [2, 6] [µM] | IC50 [3, 5] [µM] | IC50 [4, 5] [µM] | IC50 [1, 7] [µM] | IC50 [2, 8] [µM] | IC50 [3, 7] [µM] | IC50 [4, 7] [µM]
CC(C)n1cc(C(=O)Nc2ccc(Oc3ccnc(N)c3/C=C/C(=O)N3CCNCC3)c(F)c2)c(=O)n(-c2ccc(F)cc2)c1=O [Example 3, (E)-N-(4-(2-amino-3-(3-oxo-3-(piperazin-1-yl)prop-1-enyl)pyridin-4-yloxy)-3-fluorophenyl)-3-(4-fluorophenyl)-1-isopropyl-2,4-dioxo-1,2,3,4-tetrahydropyrimidine-5-carboxamide] | < 0.1 | < 0.1 | < 0.1 | < 1 | – | – | – | –
Cc1nc(Cn2cc(C(=O)Nc3ccc(Oc4ccnc(N)c4C#CCC4CCNCC4)c(F)c3)c(=O)n(-c3ccc(F)cc3)c2=O)cs1 [Example 44, N-(4-((2-amino-3-(3-(piperidin-4-yl)prop-1-yn-1-yl)pyridin-4-yl)oxy)-3-fluorophenyl)-3-(4-fluorophenyl)-1-((2-methylthiazol-4-yl)methyl)-2,4-dioxo-1,2,3,4-tetrahydropyrimidine-5-carboxamide] | – | – | – | – | < 1 | < 1 | < 0.1 | < 1
CC(C)n1cc(C(=O)Nc2ccc(Oc3ccnc(N)c3C#CC(C)(C)N3CCNCC3)c(F)c2)c(=O)n(-c2ccc(F)cc2)c1=O [Example 19, N-(4-(2-amino-3-(3-methyl-3-(piperazin-1-yl)but-1-ynyl)pyridin-4-yloxy)-3-fluorophenyl)-3-(4-fluorophenyl)-1-isopropyl-2,4-dioxo-1,2,3,4-tetrahydropyridmidine-5-carboxamide] | < 0.1 | < 0.01 | < 0.1 | < 0.1 | – | – | – | –
CC(C)(C#Cc1c(Oc2ccc(NC(=O)c3cn(C4CCOCC4)c(=O)n(-c4ccc(F)cc4)c3=O)cc2F)ccnc1N)N1CCNCC1 [Example 58, N-(4-(2-amino-3-(3-methyl-3-(piperazin-1-yl)but-1-ynyl)pyridin-4-yloxy)-3-fluorophenyl)-3-(4-fluorophenyl)-2,4-dioxo-1-(tetrahydro-2H-pyran-4-yl)-1,2,3,4-tetrahydropyrimidine-5-carboxamide] | – | – | – | – | < 1 | < 1 | < 1 | < 1
C=CCn1cc(C(=O)Nc2ccc(Oc3ccnc(N)c3C#CCC3CCN(C)CC3)c(F)c2)c(=O)n(CC=C)c1=O [Example 69, 1,3-diallyl-N-(4-(2-amino-3-(3-(1-methylpiperdin-4-yl)prop-1-ynyl)pyridin-4-yloxy)-3-fluorophenyl)-2,4-dioxo-1,2,3,4-tetrahydropyrimidine-5-carboxamide] | – | – | – | – | < 1 | < 1 | < 1 | < 1
CC(C)N1CCC(CC#Cc2c(Oc3ccc(NC(=O)c4cn(C(C)C)c(=O)n(-c5ccc(F)cc5)c4=O)cc3F)ccnc2N)CC1 [Example 29, N-(4-(2-amino-3-(3-(1-isopropylpiperidin-4-yl)prop-1-ynyl)pyridin-4-yloxy)-3-fluorophenyl)-3-(4-fluorophenyl)-1-isopropyl-2,4-dioxo-1,2,3,4-tetrahydropyrimidine-5-carboxmide] | < 0.01 | < 0.01 | < 0.01 | < 0.01 | – | – | – | –
CC(C)(C#Cc1c(Oc2ccc(NC(=O)c3cn(C4CCOCC4)c(=O)n(-c4ccc(F)cc4)c3=O)cc2F)ccnc1N)N1CCOCC1 [Example 55, N-(4-(2-amino-3-(3-methyl-3-morpholinobut-1-ynyl)pyridin-4-yloxy)-3-fluorophenyl)-3-(4-fluorophenyl)-2,4-dioxo-1-(tetrahydro-2H-pyran-4-yl)-1,2,3,4-tetrahydropyrimidine-5-carboxamide] | – | – | – | – | < 1 | < 0.1 | < 0.1 | < 1
CCCn1cc(-c2c(Oc3ccc(NC(=O)c4cn(C(C)C)c(=O)n(-c5ccc(F)cc5)c4=O)cc3F)ccnc2N)cn1 [Example 12, N-(4-(2-amino-3-(1-propyl-1H-pyrazol-4-yl)pyridine-4-yloxy)-3-fluorophenyl)-3-(4-fluorophenyl)-1-isopropyl-2,4-dioxo-1,2,3,4-tetrahydropyrimidine-5-carboxamide] | < 0.01 | < 0.1 | < 0.1 | < 1 | – | – | – | –
CC(C)n1cc(C(=O)Nc2ccc(Oc3ccnc(N)c3C#CC(=O)N3CCOCC3)c(F)c2)c(=O)n(-c2ccc(F)cc2)c1=O [Example 14, N-(4-(2-amino-3-(3-morpholino-3-oxoprop-1-ynyl)pyridin-4-yloxy)-3-fluorophenyl)-3-(4-fluorophenyl)-1-isopropyl-2,4-dioxo-1,2,3,4-tetrahydropyrimidine-5-carboxamide] | < 0.01 | < 0.01 | < 0.1 | < 0.01 | – | – | – | –
Cc1nc(Cn2cc(C(=O)Nc3ccc(Oc4ccnc(N)c4C#CCN4CCOCC4)c(F)c3)c(=O)n(-c3ccc(F)cc3)c2=O)cs1 [Example 40, N-(4-((2-amino-3-(3-morpholinoprop-1-yn-1-yl)pyridin-4-yl)oxy)-3-fluorophenyl)-3-(4-fluorophenyl)-1-((2-methylthiazol-4-yl)methyl)-2,4-dioxo-1,2,3,4-tetrahydropyrimidine-5-carboxamide] | – | – | – | – | < 1 | < 0.1 | < 0.1 | < 0.1
